From patent publication US12559454B2, “Benzenesulfonamide derivatives and uses thereof” (2692372 Ontario, Inc., priority 2019, dated 2026)
Where “and” joins values, the source holds several entries; their conditions need not be identical. Equal values may be shown once. Read-outs that look alike come from different tables or passages of the source. Each block holds one compound with its values, some of them ahead of it.

Legend:
[1] = tested on: BTK (His-tagged protein); experiment: Covalent modification of BTK by mass spectrometry (intact protein); assay type: binding; conditions: 10 μM BTK, 50 μM compound, 2 hours, 30° C.
Description: After incubation of 10 μM BTK in the presence of 50 μM of compound I-A1 for 2 hours at 30° C., the mass of the modified protein was determined by mass spectrometry. […] After incubation with inhibitor I-A1, the intensity of this had decreased by an order of magnitude, and the most intense peak is consistent with the protein whose mass was increased by 595 Da, corresponding closely to the expected mass of the inhibitor I-A1 (less one fluoride from inhibitor, and one proton from protein, 596 Da).

[2] = tested on: normal primary human fibroblast (NHF) cell lines; experiment: Toxicity study, CellTiter-Blue viability in normal primary human fibroblasts (NHF); assay type: cell-based; conditions: NHF cells, 72 hrs exposure
Description: Anti-cancer efficacy of exemplary compounds of this application was assessed in vitro in different cancer cell lines. Cell viability was examined following treatment at various concentration of inhibitor (0.097656-50 μM) using a cell Titer-Blue cell viability assay. 1×10^4 cells (NHF cells)/well were plated in 96-well assay plates in culture medium. All cells were grown in DMEM, IMDM and RPMI-1640 supplemented with 10% FBS. After 24 hrs, test compounds and vehicle controls were added to appropriate wells so the final volume was 100p in each well. The cells were cultured for the desired test exposure period (72 hrs) at 37° C. and 5% CO2. The assay plates were removed from 37° C. incubator and 20 μl/well of CellTiter-Blue® Reagent was added. The plates were incubated using standard cell culture conditions for 1-4 hours and the plates were shaken for 10 seconds and record fluorescence at 560/590 nm.
Representative data for exemplary compounds against select normal primary human fibroblast (NHF) cell lines are presented in the following Table 7.

[3] = target: T1, BTK (Homo sapiens, UniProt Q06187); experiment: BTK irreversible inhibition, enzyme kinetic analysis; assay type: biochemical; conditions: for inhibition profile by enzyme kinetic analysis: 0.1 nM BTK, 500 μM ATP
T1 sequence (Q06187 whole entry, species assumed): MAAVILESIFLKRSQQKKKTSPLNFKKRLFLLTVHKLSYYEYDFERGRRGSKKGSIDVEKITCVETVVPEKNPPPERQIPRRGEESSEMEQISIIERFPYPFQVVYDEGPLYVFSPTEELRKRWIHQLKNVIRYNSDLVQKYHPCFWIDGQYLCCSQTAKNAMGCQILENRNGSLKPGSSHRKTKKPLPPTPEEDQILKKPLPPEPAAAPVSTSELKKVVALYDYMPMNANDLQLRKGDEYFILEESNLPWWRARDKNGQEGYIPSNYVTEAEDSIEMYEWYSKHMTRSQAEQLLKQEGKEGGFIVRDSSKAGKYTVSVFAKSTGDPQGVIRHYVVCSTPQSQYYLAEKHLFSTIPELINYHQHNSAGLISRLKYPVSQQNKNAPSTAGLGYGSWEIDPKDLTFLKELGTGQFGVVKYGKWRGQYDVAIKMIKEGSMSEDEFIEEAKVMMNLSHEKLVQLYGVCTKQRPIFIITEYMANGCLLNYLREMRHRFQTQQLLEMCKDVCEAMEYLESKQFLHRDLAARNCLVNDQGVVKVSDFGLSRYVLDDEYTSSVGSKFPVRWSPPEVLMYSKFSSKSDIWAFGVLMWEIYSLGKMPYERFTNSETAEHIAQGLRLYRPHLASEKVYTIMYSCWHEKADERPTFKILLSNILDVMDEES
Description: One of ordinary skill in the art will recognize that this is consistent with the irreversible inhibition of BTK by compound I-A1.
One of ordinary skill in the art will recognize that this is consistent with the irreversible inhibition of BTK by compound I-A6.
One of ordinary skill in the art will recognize that this is consistent with the irreversible inhibition of BTK by compound 3A-2.
The shift of IC50 to a lower value after pre-incubation of the enzyme indicates to one of ordinary skill in the art that a significant portion of the enzyme was inhibited irreversibly during the incubation period.

[4] = tested on: RL human non-Hodgkin's lymphoma B cell line; experiment: In vitro efficacy in RL cells (Example G1); conditions: read-out: RL (IC50, μM)
[5] = tested on: normal pooled human fibroblasts; experiment: Viability of normal pooled human fibroblasts (Example G1); conditions: Fibroblast, read-out: Human Fibroblast (IC50, μM)
[6] = tested on: RL human non-Hodgkin's lymphoma B cell line; experiment: Cell viability in RL cells (Table 6); assay type: cell-based
[7] = Parallel artificial membrane permeability assay (PAMPA), Example C4; assay type: in vitro ADME; conditions: PBS pH 7.4, 10 μM, 16 hours
Description: Assay Procedures. […] 7) Cover with plate lid. Vortex at 750 rpm for 100 seconds. […] Determine the compound concentrations by LC/MS/MS.

[8] = target: T1, BTK; experiment: BTK washout experiment; assay type: biochemical; conditions: 3-h incubation, 40 nM BTK, 296 nM compound, 400-fold dilution
Description: After a 3-h incubation of 40 nM BTK in the presence of 296 nM of compound I-A1, a 400-fold dilution was performed to remove excess inhibitor.
After a 6-h incubation of 50 nM BTK in the presence of 280 nM of compound 3A-6, a 400-fold dilution was performed to remove excess inhibitor.
By way of contrast, a “washout” experiment performed with ARQ-531 gives a very different result, because this compound lacks a warhead and is known to inhibit BTK reversibly. After a 6-h incubation of 50 nM BTK in the presence of 177 nM of ARQ-531, a 400-fold dilution was performed to remove excess inhibitor. […] This indicates to one of ordinary skill in the art that the enzyme was not inhibited irreversibly during the incubation with ARQ-531.

[9] = target: T1, BTK; experiment: In vitro BTK inhibition (no preincubation); assay type: biochemical; conditions: Table 17
[10] = Reactivity profiling with glutathione, LC/MS/MS; assay type: physicochemical; conditions: PBS buffer with 5 mM GSH, PBS pH 7.4, 25° C., 5 μM compound
Description: The experiment was started by placing 1 μL of 1 mM stocking solution of the test compound in DMSO in 199 μL of PBS buffer at pH 7.4 with 5 mM GSH to reach a final concentration of 5 μM. The final DMSO concentration was 0.5%. The solution was then incubated at 25° C. at 600 rpm, and was quenched with 600 μL solution of acetonitrile at 0, 30, 60 and 120 minutes. The quenched solution was vortexed for 10 minutes and centrifuged for 40 minutes at 3,220 g. An aliquot of 100 μL of the supernatant was diluted by 100 μL ultra-pure water, and the mixture was used for LC/MS/MS analysis. The data was processed and analyzed using Microsoft Excel.

[11] = target: T1, BTK; experiment: Selected kinase inhibition, BTK (Table 6); assay type: biochemical
[12] = Reactivity profiling with glutathione, HPLC method; assay type: physicochemical; conditions: IMDM buffer with 10% FBS and 5 mM GSH, 25 μM compound
Description: The rate of compound degradation is determined by the integrated area of the analytical peak corresponding to the intact compound (t=0) after each sampling time. The elution time was 13 minutes with the flow rate of 1.2 ml/min. The mobile phase was consisted of phase A and B. Mobile phase A was analytical grade acetonitrile (+0.1% formic acid) and mobile phase B was Milli-Q water (+0.1% formic acid). Each compound was tested in duplicate. The data was processed and analyzed using GraphPad.

[13] = tested on: K562 cells; experiment: CellTiter-Blue cell viability, K562; assay type: cell-based; conditions: Homo sapiens, 72 hrs exposure
In short: (§1)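 Cells plated at 1×10^4 per well, compound (0.097656-50 μM) added after 24 hrs and exposed 72 hrs at 37° C, 5% CO2. Viability by CellTiter-Blue, 1-4 h incubation, fluorescence at 560/590 nm.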

[14] = tested on: MOLM-13 cells; experiment: CellTiter-Blue cell viability, MOLM-13; assay type: cell-based; conditions: Homo sapiens, 72 hrs exposure
In short: as §1

[15] = tested on: MV4-11 cells; experiment: CellTiter-Blue cell viability, MV-4-11; assay type: cell-based; conditions: Homo sapiens, 72 hrs exposure
In short: as §1

[16] = Intrinsic clearance in mouse hepatocyte; assay type: in vitro ADME; conditions: hepatocytes
Description: A stock of 100 μM test compound was prepared by diluting the 10 mM test compound in DMSO with a solution of 50% acetonitrile and 50% water. In a 96-well non-coated plate, 198 μL of hepatocytes was pipetted, and the plate was placed in the incubator on an orbital shaker to allow the hepatocytes to warm for 10 minutes. To this solution was added 2 μL of the 100 μM test compound to start the reaction, and the plate was placed on an orbital shaker. […] The reaction solution was then vortexed for 10 minutes and centrifuged at 4,000 rpm for 30 minutes at 4° C. 400 μL of the supernatant was transferred to one new 96-well plate. Centrifuged at 4,000 rpm for 30 minutes at 4° C. Transfer 100 μL of the supernatant to a new 96-well plate ensuring the pellet was not disturbed. Add 100 μL of ultrapure water to all samples for analysis by LC-MS/MS. Bioanalytical method: Column—Phenomenex Synergi 4μ Hydro-PR 80A (2.0×30 mm). Mobile phase—0.1% formic acid in water (solvent A) and 0.1% formic acid in acetonitrile (solvent B). Column temperature—room temperature. Injection volume—10 μL. MS analysis—API 4000 instrument from AB Inc (Canada) with an ESI interface.

[17] = Parallel artificial membrane permeability assay (PAMPA), Example D4; conditions: for recovery at 16 h, 10 μM: pH 7.4
Description: (§2) 1) The stock solutions of positive controls were prepared in DMSO at the concentration of 10 mM. Testosterone and methotrexate were used as control compounds in this assay. 2) Prepare a stock solution of compounds in DMSO at the concentration of 10 mM, and further dilute with PBS (pH 7.4). The final concentration of the test compound is 10 μM.
(§3) Assay Procedures. […] 2)Carefully pipette 5 μL of the lecithin/dodecane mixture into each acceptor plate well (top compartment), avoiding pipette tip contact with the membrane. 3) Immediately after the application of the artificial membrane (within 10 minutes), add 300 μL of PBS (pH 7.4) solution to each well of the acceptor plate. Add 300 μL of drug-containing solutions to each well of the donor plate (bottom compartment) in triplicate. 4) Slowly and carefully place the acceptor plate into the donor plate, making sure the underside of the membrane is in contact with the drug-containing solutions in all wells. 5) Replace the plate lid and incubate at 25° C., 60 rpm for 16 hours. 6) After incubation, aliquots of 50 μL from each well of acceptor and donor plate are transferred into a 96-well plate. Add 200 μL of methanol (containing IS: 100 nM Alprazolam, 200 nM Labetalol and 2 μM Ketoprofen) into each well. 7) Cover with plate lid. Vortex at 750 rpm for 100 seconds. Samples were centrifuged at 3,220 g for 20 minutes. Determine the compound concentrations by LC/MS/MS.

[18] = tested on: tubulin; experiment: Tubulin polymerization assay; assay type: biochemical; conditions: for % Inhibition: Vmax normalized to tubulin only control; for % D.O.P.: degree of polymerization relative to tubulin control
In short: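 Purified tubulin (3 mg/mL in the polymerization mix) in 80 mM PIPES pH 6.9, 2 mM MgCl2, 0.5 mM EGTA, 1 mM GTP, 10.2% glycerol was added to inhibitor at 37 °C. A340 read every 15 s for 30 min; maximal baseline-subtracted change relative to tubulin-only control gave % degree of polymerization.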

[19] = Plasma concentration in Balb/C nude mice
Description: IP administration at 40 mg/kg
Bioanalytical assay: Mobile phase: Solvent A=Water (0.1% Formic acid, 5% Acetonitrile), Solvent B=Acetonitrile (0.1% Formic acid, 5% Water), Column: Agilent ZORBAX XDB-Phenyl 5 μm (50×2.10 mm), MS: AB API 5500 LC/MS/MS instrument, HPLC: Shimadzu (DGU-20A5R)
Mouse species: Balb/C nude mice

[20] = target: T2, BMX (Homo sapiens, UniProt P51813); experiment: In vitro kinase inhibition, BMX; assay type: biochemical
T2 sequence (P51813 1-675): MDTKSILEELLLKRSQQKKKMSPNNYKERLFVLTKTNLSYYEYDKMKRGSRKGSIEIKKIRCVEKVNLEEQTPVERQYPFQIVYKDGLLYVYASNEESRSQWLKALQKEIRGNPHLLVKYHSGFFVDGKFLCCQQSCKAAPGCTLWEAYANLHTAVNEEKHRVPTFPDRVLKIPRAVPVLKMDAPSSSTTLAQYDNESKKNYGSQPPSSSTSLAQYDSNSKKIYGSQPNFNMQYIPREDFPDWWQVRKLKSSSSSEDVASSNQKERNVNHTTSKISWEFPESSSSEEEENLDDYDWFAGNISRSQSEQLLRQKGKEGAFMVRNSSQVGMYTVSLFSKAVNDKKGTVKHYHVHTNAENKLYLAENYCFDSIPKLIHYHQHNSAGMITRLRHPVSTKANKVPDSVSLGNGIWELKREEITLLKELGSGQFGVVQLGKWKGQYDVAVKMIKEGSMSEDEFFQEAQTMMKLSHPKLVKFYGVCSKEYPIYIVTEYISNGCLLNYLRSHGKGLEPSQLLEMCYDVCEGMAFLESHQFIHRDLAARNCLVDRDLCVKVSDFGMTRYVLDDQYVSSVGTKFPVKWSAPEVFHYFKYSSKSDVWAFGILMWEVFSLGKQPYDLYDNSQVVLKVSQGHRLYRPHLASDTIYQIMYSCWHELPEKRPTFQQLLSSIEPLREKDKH

[21] = PAMPA, 16 h, 10 μM, pH 7.4
Description: as §2, §3

inhibition profile by enzyme kinetic analysis [3]: time-dependent inhibition
IC50 [4]: 1.61 µM
IC50 [6]: 1000 to 10000 nM
−Log Pe [7]: B (>5 to ≤6)
inhibition at 0.296 µM ([8]; read-out: enzyme inhibited irreversibly): > 90%
remaining activity at 0.296 µM ([8]; relative to DMSO, read-out: residual activity of the enzyme): 7%
Structure (SMILES): Nc1ncnc2c1c(-c1ccc(Oc3ccccc3)cc1)nn2[C@@H]1CCCN(S(=O)(=O)c2c(F)c(F)c(F)c(F)c2F)C1 [I-A1, (R)-1-(1-((perfluorophenyl)sulfonyl)piperidin-3-yl)-3-(4-phenoxyphenyl)-1H-pyrazolo[3,4-d]pyrimidin-4-amine]
mass increase of BTK after incubation [1]: 595 Da
IC50 [2]: 1000 to 10000 nM
IC50 [5]: 3.98 µM

IC50 [9]: 100 to 1000 nM
inhibition profile by enzyme kinetic analysis [3]: linear enzyme reaction rates
IC50 ([3]; fitting of linear reaction rates to a reversible binding model, read-out: IC50 (reversible binding model)): 334 nM
half-life at 5 μM [10]: 167 to 500 h
−Log Pe [7]: B (>5 to ≤6)
IC50 [11]: 100 to 1000 nM
Structure (SMILES): Nc1ncnc2c1c(-c1ccc(Oc3ccccc3)cc1)nn2[C@@H]1CCCN(S(=O)(=O)c2c(F)c(F)cc(F)c2F)C1 [I-A5, (R)-3-(4-phenoxyphenyl)-1-(1-((2,3,5,6-tetrafluorophenyl)sulfonyl)piperidin-3-yl)-1H-pyrazolo[3,4-d]pyrimidin-4-amine]
IC50 [2]: > 25000 nM

half-life at 25 μM [12]: 1.67 to 16.7 h
IC50 [13]: 100 to 1000 nM
IC50 [14]: 100 to 1000 nM
IC50 [15]: ≤ 100 nM
half-life at 1 μM [16]: 1.67 to 16.7 h
−Log Pe ([17]; PBS pH 7.4, 10 μM, 16 hours): 5.02
recovery at 16 h, 10 μM [17]: 94.9%
Cmax ([19]; Balb/C nude, mouse, ip, 40 mg/kg): < 20 ng/mL and < 50 µM
K (h^−1) ([19]; IP 40 mg/kg, Balb/C nude mice): A (≤5 h^−1)
Structure (SMILES): COc1ccc(NS(=O)(=O)c2c(F)c(F)c(F)c(F)c2OC2CC2)cc1F [Compound I-75, 2-cyclopropoxy-3,4,5,6-tetrafluoro-N-(3-fluoro-4-methoxyphenyl)benzenesulfonamide]
% Inhibition [18]: B (10-20%)
% D.O.P. [18]: B (< 85%)

IC50 [9]: 100 to 1000 nM
IC50 [20]: 10 to 100 nM
Structure (SMILES): COc1c(F)c(F)c(F)c(F)c1S(=O)(=O)N1CCC[C@@H](n2nc(-c3ccc(Oc4ccccc4)cc3)c3c(N)ncnc32)C1 [Compound 3A-1, (R)-3-(4-phenoxyphenyl)-1-(1-((2,3,4,5-tetrafluoro-6-methoxyphenyl)sulfonyl)piperidin-3-yl)-1H-pyrazolo[3,4-d]pyrimidin-4-amine]

Structure (SMILES): COc1ccc(NS(=O)(=O)c2c(F)c(F)c(F)c(F)c2F)cc1F [Batabulin, batabulin, reference compound]
−Log Pe [21]: 5.00
half-life at 1 μM [16]: ≤ 0.167 h
recovery at 16 h, 10 μM [17]: 67.4%
% Inhibition [18]: C (>20%)
% D.O.P. [18]: B (< 85%)
